One assay relates to AQP3. As to the kind of experiment: AQP3 mRNA level by RT-PCR in keratinocytes. The class given is cell-based, human. Particulars: HaCaT cells, peptide 1, 10, 50 μM, 24 hours; FIGS. 3A, 3C. The procedure: First, HaCaT cells were seeded in a 6-well plate at a cell density of 3×10^5 cell/well, and then the cells were cultured in DMEM medium containing 10% fetal bovine serum (FBS) for 24 hours. The cultured cells were washed once with serum free DMEM medium, and then the peptide of the present invention was mixed in 1 mL of the serum free DMEM medium at each of concentrations of 1, 10, and 50 μM, and dispensed into the cells. A positive control (PC) was treated with 100 nM of EGF instead of the above peptide. The cells were cultured in a CO2 incubator at 37° C. for 24 hours.
The cultured cells were washed twice with PBS, and then RNA was extracted from the cells using easy blue (iNtRON, Cat. No.: 17061, Korea). The extracted RNA was subjected to RT reaction using a kit (enzynomics, Cat. No.: RT200, Korea). Thereafter, RT-PCR was performed using a PCR kit (enzynomics, Cat. No.: R581T, Korea). The sequences of the primers of AQP3 and SIRT1 used in RT-PCR and the sequence of the primer of GAPDH used to compare the total RNA amount of each treatment group are shown in [Table 2].

Another assay concerns Elastin. As to the kind of experiment: Elastin mRNA level decreased by UV irradiation, RT-PCR in fibroblasts. It is filed as cell-based, mouse. Particulars: NIH3T3 cells, 8 J/cm^2 UVA, peptide 1, 10, 50 μM, 6 hours after irradiation; FIGS. 5A, 5D. The procedure:
(§1) The expression of genes related to extracellular matrix components is inhibited when irradiated with UV.
(§2) First, NIH3T3 cells were seeded in a 6-well plate at a cell density of 5×10^5 cell/well, and then the cells were cultured in DMEM medium containing 10% fetal bovine serum (FBS) for 24 hours. The cultured cells were washed once with serum free DMEM medium, and then the peptide of the present invention was mixed in 1 mL of the serum free DMEM medium at each of concentrations of 1, 10, and 50 μM, and dispensed into the cells. A positive control (PC) was treated with 50 μM of Quercetin instead of the above peptide. The cells were cultured in a CO2 incubator at 37° C. for 1 hour.
(§3) The medium of the cultured cells was transferred to a tube (e-tube), 1 ml of PBS was added, and irradiation was performed with 8 J/cm^2 of UVA using a UV irradiator (VILBER LOURMAT, Cat No.: 3102-BSU, France). After removing PBS, 900 μL of the medium transferred to the tube was dispensed, and culture was performed in a CO2 incubator at 37° C. for 6 hours. The cultured cells were washed twice with PBS, and then RNA was extracted from the cells using easy blue (iNtRON, Cat. No.: 17061, Korea). The amount of RNA extracted was quantified, 1,000 ng of RNA was added per tube, and RT reaction was performed using a kit (enzynomics, Cat. No.: RT200, Korea). […]

The next assay has as its system Col1a1. Put plainly: Col1a1 (collagen) gene expression by RT-PCR in fibroblasts. It is filed as cell-based, mouse. Particulars: NIH3T3 cells, peptide 1, 10, 50 μM, 24 hours; FIGS. 1A, 1B. The method, then: First, NIH3T3 cells (mouse fibroblast cell line) were seeded in a 6-well plate at a cell density of 3×10^5 cell/well, and then the cells were cultured in DMEM medium containing 10% fetal bovine serum (FBS) for 24 hours. The cultured cells were washed once with serum free DMEM medium, and the peptide of the present invention was mixed in 1 mL of the serum free DMEM medium at each of concentrations of 1, 10, and 50 μM, and dispensed into the cells. A positive control (PC) was treated with 5 ng/ml of TGF-β1 instead of the above peptide. The cells were cultured in a CO2 incubator at 37° C. for 24 hours.
The cultured cells were washed twice with PBS, and RNA was extracted from the cells using easy blue (iNtRON, Cat. No.: 17061, Korea). The amount of RNA extracted was quantified, 1,000 ng of RNA was added per tube, and RT reaction was performed using a kit (enzynomics, Cat. No.: PT200, Korea). RT-PCR was performed using a PCR kit (enzynomics, Cat. No.: […], Korea). The sequences of the primers of collagen, fibronectin, and elastin used in RT-PCR and the sequence of the primer of GAPDH used to compare the total RNA amount of each treatment group are shown in [Table 2].

Another assay deals with Fibronectin. As to the kind of experiment: Fibronectin mRNA level decreased by UV irradiation, RT-PCR in fibroblasts. The class given is cell-based, mouse. Particulars: NIH3T3 cells, 8 J/cm^2 UVA, peptide 1, 10, 50 μM, 6 hours after irradiation; FIGS. 5A, 5C. The procedure:
as §1, §2, §3

For the next assay, the system named is NIH3T3 cells. As to the kind of experiment: Intracellular ROS level after UVA irradiation (DCFH-DA, FACS) in fibroblasts. It is filed as cell-based, mouse. Particulars: 8 J/cm^2 UVA, peptide 1, 10, 50 μM, 24 hours after irradiation, FIG. 4A. The procedure: (§4) The reactive oxygen species level increases when UV is irradiated. Therefore, it was confirmed whether the reactive oxygen species level decreased again and the aging phenomenon caused by oxidative stress in cells was inhibited when treated with the peptide of the present invention.
(§5) First, NIH3T3 cells and HaCaT cells were seeded in a 6-well plate at a cell density of 5×10^5 cell/well, respectively, and then the cells were cultured in DMEM medium containing 10% fetal bovine serum (FBS) for 24 hours. The cultured cells were washed once with serum free DMEM medium, and then the peptide of the present invention was mixed in 1 mL of the serum free DMEM medium at each of concentrations of 1, 10, and 50 μM, and dispensed into the cells. A positive control (PC) was treated with 2.5 mM of N-Acetylcysteine (NaC) instead of the above peptide.
(§6) The cells were cultured in a CO2 incubator at 37° C. for 1 hour. The medium of the cultured cells was transferred to a tube, 1 ml of PBS was added, and then the NIH3T3 cells were irradiated with 8 J/cm^2 of UVA and the HaCaT cells were irradiated with 15 mJ/cm^2 of UVB using a UV irradiator (VILBER LOURMAT, Cat No.: 3102-BSU, France). […] After centrifugation, the cells were washed with PBS, and a fluorescence value was measured through FACS.

A further assay concerns HaCaT cells. Put plainly: Intracellular ROS level after UVB irradiation (DCFH-DA, FACS) in keratinocytes. It is filed as cell-based, human. The following applies: 15 mJ/cm^2 UVB, peptide 1, 10, 50 μM, 24 hours after irradiation, FIG. 4B. The procedure: as §4, §5, §6

Turning to LCACCLHNCNECQ, in the assay with AQP3, the “mRNA level of AQP3” value was “increased”. Also, the “mRNA level of elastin decreased by UV irradiation” value in the assay with Elastin was “increased again”. Also, in the assay with Col1a1, the “expression of the collagen (Col1a1) gene” value is listed as “gradually increased as a concentration of the peptide increased”. Moreover, the “mRNA level of fibronectin decreased by UV irradiation” value with Fibronectin is given as “increased again”. The “intracellular reactive oxygen species level increased by UV irradiation” value in the assay on NIH3T3 cells and with HaCaT cells was “decreased” each time.

The values are drawn from patent US20240407993A1, “PEPTIDE HAVING ANTI-AGING ACTIVITY, AND USE THEREOF” (CAREGEN CO., LTD., priority 2021, published 2024).
